# Measurements from PubChem BioAssay (NCI).
# Several values for one entry are separate records, joined by “and”; a condition that tells them apart may be missing. Identical values can stand only once.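 Five compound concentrations were applied to cells in 96-well plates for 48 hours; endpoints were derived by simple linear interpolation of the resulting dose-response curve. At the GI50, growth is halved. The concentration for full growth arrest is given as TGI.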
# Columns and labels:
# Experiment in all cases: growth of human tumour cells (NCI), 48 h
# HS 578T breast = system: HS 578T breast
# SK-MEL-28 melanoma = system: SK-MEL-28 melanoma
# SF-268 CNS = system: SF-268 CNS
# SNB-19 CNS = system: SNB-19 CNS
# RXF 393 renal = system: RXF 393 renal
# HOP-92 NSCLC = system: HOP-92 NSCLC
# NCI-H460 lung = system: NCI-H460 lung
# NCI-H23 lung = system: NCI-H23 lung
# UACC-62 melanoma = system: UACC-62 melanoma
# SK-MEL-2 melanoma = system: SK-MEL-2 melanoma
SMILES,GI50 (HS 578T breast),TGI (HS 578T breast),GI50 (SK-MEL-28 melanoma),TGI (SK-MEL-28 melanoma),GI50 (SF-268 CNS),TGI (SF-268 CNS) [µM],GI50 (SNB-19 CNS),TGI (SNB-19 CNS) [µM],GI50 (RXF 393 renal),TGI (RXF 393 renal),GI50 (HOP-92 NSCLC),TGI (HOP-92 NSCLC),GI50 (NCI-H460 lung),TGI (NCI-H460 lung) [µM],GI50 (NCI-H23 lung),TGI (NCI-H23 lung) [µM],GI50 (UACC-62 melanoma),TGI (UACC-62 melanoma),GI50 (SK-MEL-2 melanoma),TGI (SK-MEL-2 melanoma)
Nc1n[nH]c(N)c1N=Nc1ccc(O)cc1,21.8 µM,77.8 µM,22.1 µM,63.8 µM,20.5 µM,82.6,29.8 µM,> 100,18.4 µM,43.9 µM,18.2 µM,67.8 µM,25.1 µM,97.2,19.1 µM,62.3,11 µM,36.4 µM,14.4 µM,57 µM
Cc1cccc2c(Nc3ccc(NS(C)(=O)=O)cc3)c3ccc([N+](=O)[O-])cc3nc12,1.23 µM,5.42 µM,1.51 µM,4.38 µM,0.355 µM,4.38,0.456 µM,14.7,1.38 µM,3.1 µM,0.345 µM,2.47 µM,0.0234 µM,1.76,1.25 µM,4.31,0.773 µM,3.01 µM,2.55 µM,5.49 µM
COc1cc2c(c(OC)c1OC)-c1c(cc3c(c1OC)OCO3)CC(C)C(C)(O)C2OC(=O)c1ccccc1 (configuration not stated),,> 100 µM,,> 100 µM,,> 100,,> 100,,86.2 µM,,73.7 µM,,> 100,,> 100,,> 100 µM,,80.5 µM
C[C@@H]1COCCN1c1cc(-c2ccnn2C)c2ccnc(-c3ccn[nH]3)c2n1,0.0994 µM and 0.291 µM,0.643 µM and 2.06 µM,0.361 µM and 0.777 µM,4.2 µM and 16.8 µM,0.238 µM and 0.449 µM,,0.23 µM and 0.31 µM,> 100,0.0236 µM and 0.0851 µM,0.0776 µM and 0.497 µM,0.0815 µM and 0.175 µM,0.651 µM and 3.08 µM,0.0561 µM and 0.128 µM,,0.0303 µM and 0.075 µM,,0.125 µM and 0.163 µM,0.876 µM and 1.3 µM,0.064 µM and 0.161 µM,0.734 µM and 1.85 µM
CCN(C(=O)CN1CCN(c2cc3c(cc2F)c(=O)c(C(=O)O)cn3CC)CC1)c1nc(-c2ccccc2)cs1,0.842 µM,> 100 µM,0.59 µM,> 100 µM,0.43 µM,> 100,0.451 µM,> 100,0.381 µM,> 100 µM,0.23 µM,0.585 µM,0.394 µM,> 100,0.315 µM,> 100,,,0.248 µM,0.692 µM
CCN(CC)C(=O)COc1cc2c(O)c3c(O)c(C)c4c(c13)C(=O)C(C)(OC=CC(OC)C(C)C(OC(C)=O)C(C)C(O)C(C)C(O)C(C)C=CC=C(C)C(=O)N2)O4 (configuration not stated),,> 100 µM,,> 100 µM,,> 100,,> 100,,> 100 µM,,> 100 µM,,> 100,,> 100,,> 100 µM,,> 100 µM
O=C1/C(=C/c2cccc(Br)c2)COc2ccc(O)c(O)c21,2.28 µM,7.53 µM,1.75 µM,3.33 µM,1.63 µM,4.08,1.53 µM,3.04,1.38 µM,2.84 µM,1.89 µM,7.21 µM,2.14 µM,5.42,1.74 µM,4.25,1.64 µM,3.14 µM,1.53 µM,3.11 µM
CCSc1nc(N)c(C#N)c(-c2ccco2)c1C#N,33.9 µM,> 100 µM,> 100 µM,> 100 µM,32.1 µM,> 100,51.2 µM,> 100,56.4 µM,> 100 µM,5.85 µM,45.5 µM,33.5 µM,> 100,53.2 µM,> 100,32.6 µM,> 100 µM,> 100 µM,> 100 µM
COc1cc(C2CC(=O)Nc3c2cc(Br)c2ccccc32)cc(Br)c1OC (configuration not stated),1.78 µM,> 54.2 µM,2.98 µM,> 100 µM,4.63 µM,> 100,2.69 µM,9.96,1.73 µM,3.93 µM,1 µM,7.07 µM,1.66 µM,5,4.37 µM,> 100,1.64 µM,> 100 µM,3.67 µM,27.2 µM
Nc1ncccc1-c1nc2ccc(-c3ccccc3)nc2n1-c1ccc(C2(N)CCC2)cc1,0.253 µM,2.31 µM,1.2 µM,2.66 µM,2.05 µM,12.4,1.5 µM,3.67,0.214 µM,1.63 µM,0.0644 µM,1.2 µM,0.333 µM,2.99,5.19 µM,21.5,1.37 µM,2.99 µM,1.65 µM,3.54 µM
COc1ccc2c(c1)/C(=C\c1c[nH]c3ccc(OC)cc13)C(=O)N2,2.33 µM,7.66 µM,4.56 µM,16.7 µM,3.61 µM,15.3,6.66 µM,20.1,2.91 µM,9.6 µM,1.48 µM,6.55 µM,3.26 µM,13.1,4.46 µM,21,2.76 µM,11.3 µM,2.3 µM,6.27 µM
CC1=C(C(=O)Nc2ccc(F)c(Cl)c2)C(c2ccccc2O)NC(=O)N1 (configuration not stated),76.3 µM,> 100 µM,79.7 µM,> 100 µM,> 100 µM,> 100,> 100 µM,> 100,> 100 µM,> 100 µM,81.6 µM,> 100 µM,96.6 µM,> 100,> 100 µM,> 100,49 µM,> 100 µM,> 100 µM,> 100 µM
CN1CCN(c2cc3nc4ccccc4n(-c4ccc(Cl)cc4)c-3cc2=N)CC1,20.7 µM,95.7 µM,,,32.1 µM,> 100,> 100 µM,> 100,20.3 µM,99.8 µM,28.7 µM,94.8 µM,39.6 µM,> 100,15.9 µM,32.9,22.9 µM,54.8 µM,33.7 µM,> 100 µM
Clc1ccccc1NN(Cc1ccncc1)c1ccccc1Cl,,48.6 µM,,40.7 µM,,36.2,,37,,31.8 µM,,18.2 µM,,,,29.2,,30.7 µM,,28.6 µM
